Results on 3 compounds are retold here after patent publication EP0452101B1, “Spiro bridged and unbridged heterocyclic compounds” (ISRAEL INSTITUTE FOR BIOLOGICAL RESEARCH, priority 1990, dated 1991).

Each structure is given as a SMILES string. Read-outs that look alike come from different tables or passages of the source.

Data set [1] deals with T1, M1 muscarinic receptor (Rattus norvegicus, UniProt P08482).
T1 sequence (P08482 1-460): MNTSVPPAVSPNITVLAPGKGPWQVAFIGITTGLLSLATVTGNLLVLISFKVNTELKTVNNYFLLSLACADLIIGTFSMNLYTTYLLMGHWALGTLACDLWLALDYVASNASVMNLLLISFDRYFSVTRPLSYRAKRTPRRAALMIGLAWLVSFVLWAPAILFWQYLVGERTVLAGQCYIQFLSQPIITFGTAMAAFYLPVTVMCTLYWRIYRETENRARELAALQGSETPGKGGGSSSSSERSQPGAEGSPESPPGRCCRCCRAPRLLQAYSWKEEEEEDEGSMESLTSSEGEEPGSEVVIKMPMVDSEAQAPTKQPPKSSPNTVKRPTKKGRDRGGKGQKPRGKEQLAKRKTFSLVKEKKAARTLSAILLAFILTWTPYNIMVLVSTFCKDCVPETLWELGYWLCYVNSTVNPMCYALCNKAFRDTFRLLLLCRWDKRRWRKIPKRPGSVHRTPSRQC
The experiment in a line: Displacement of 3H-PZ from rat cerebral cortex, 10 mM phosphate buffer. In kind it is binding. Also on record: from tissue; host or cells: rat cerebral cortex homogenates. On the technique in general: Displacement assays read how much labelled ligand stays bound in the presence of the test substance.

The test system of data set [2] is AF64A-injected mature rats. The experiment in a line: 8-arm radial maze (RAM) in AF64A-treated rats, Part A. In kind it is in vivo. Particulars: AF125 0.5 mg./kg. i.p. Here is the method:
This animal model mimics the cholinergic hypofunction and cognitive dysfunction in SDAT (Fisher and Hanin, loc cit; Fisher et al, Neurosci. Lett. 102: 325-331, 1989); the method described in the latter publication was used here.
Forty eight mature male (11-12 months) rats which were used in this study. They were injected icv with AF64A (3 nmole/2 µl./side) 8 months earlier, at the age of three months. One week before the behavioral testing, rats were transferred to individual cages and were food restricted until reaching 90% of their free feeding weight (the rats had free access to water). The room was illuminated 12 hrs a day (6:00 to 18:00) and behavioral testing sessions were carried out during the mornings. After reaching 90% of free feeding weight, rats received about 4 food pellets per day (Altromin, 15 g.) in order to further reduce the rats' weights. Two days before behavioral testing the rats were fed with precision pellets (Bioserv Inc.) which were later used for reinforcement in the maze.
Behavioral tests were conducted in an elevated (70cm) 8-arms radial maze, made of PVC. […]
Due to the size of the batch (48 rats) the experiment was conducted in two phases. […] The correct choices, number of errors and total time scores were analyzed by a 2-way ANOVA (2x2) (Injection-AF64A/saline and Treatment-AF125 0.5 mg./kg./saline).

The target of data set [3] is T2, m4 subtype receptors (PC12 cells) (Rattus norvegicus, UniProt P08485).
T2 construct: endogenous in cells; host or cells: PC12 cells
T2 sequence (P08485 1-478): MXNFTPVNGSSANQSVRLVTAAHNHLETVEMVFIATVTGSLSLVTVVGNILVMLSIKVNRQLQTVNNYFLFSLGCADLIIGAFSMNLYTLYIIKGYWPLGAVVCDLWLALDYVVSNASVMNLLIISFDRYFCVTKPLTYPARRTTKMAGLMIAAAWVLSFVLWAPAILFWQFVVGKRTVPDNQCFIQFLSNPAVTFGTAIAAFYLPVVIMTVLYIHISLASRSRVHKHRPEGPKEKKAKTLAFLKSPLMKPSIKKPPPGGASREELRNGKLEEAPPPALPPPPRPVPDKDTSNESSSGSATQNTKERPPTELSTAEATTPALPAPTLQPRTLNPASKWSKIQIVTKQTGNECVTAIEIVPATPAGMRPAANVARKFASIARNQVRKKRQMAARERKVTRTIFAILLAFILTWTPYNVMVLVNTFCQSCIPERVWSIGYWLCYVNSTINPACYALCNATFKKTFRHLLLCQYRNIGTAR
The experiment in a line: Inhibition of adenylate cyclase activity in PC12 cells. In kind it is cell-based. Particulars: for EC50: PC12 m4, AC activity; for AC (adenylate cyclase activity): PC12 m4, tested at 1mM. Here is the method:
(§1) The new compounds AF150, AF151, AF150(S) and AF125 were assayed for their ability to stimulate PI in CHO cells transfected with m1 and m3 receptors, respectively (Buck and Fraser, loc cit), and in cultured human neuroblastoma cells, line SK-N-SH, which express mainly the m3 subtype, but not the m1 subtype (Pinkas-Kramarski et al, Neurosci. Lett. 188: 335-340, 1990; Luthin et al Mol. Pharmacol. 34: 327-333, 1988). These compounds were also assayed on cultured PC12 cells which express mainly m4 subtype receptors and are coupled to inhibition of AC activity (Pinkas-Kramarski et al, loc cit).
(§2) Stimulation of PI breakdown was assayed using the method described by Stein et al (EMBO J. 7: 3031-3035, 1988), and modulation of AC activity was assayed by the method of Stein et al, loc cit and Pinkas-Kramarski et al (FEBS Lett., 239: 174-178, 1988). […]

Data set [4] has as its system CA1 neurons in the hippocampal slice. The experiment in a line: Electrophysiological evaluation in rat hippocampal slices. Here is the method: In general terms the effects of microdrops of AF150, ACh and PZ were applied to rat hippocampal cells recorded intracellularly. The exact concentrations of the drug at the receptor sites are not known, using this method. However, this method has an advantage over the perfusion method, in that it gives a more correct picture from the electrophysiological point of view (Segal, loc cit).
Intracellular responses to AF150 of CA1 neurons in the hippocampal slice were recorded, using the method of Segal. Small hyperpolarizing current pulses (current traces not shown) were alternated with stimulation of the Schaffer-commissural afferents producing postsynaptic potentials.

Data set [5] concerns the target m3 receptors (Rattus norvegicus, UniProt P08483). The experiment in a line: PI hydrolysis in CHO cells transfected with m3 receptors. Particulars: for effective concentration which induces the effect: CHO m3, PI hydrolysis, footnote b; for PI (phosphoinositides hydrolysis): CHO m3, tested at 1mM. In kind it is cell-based. Here is the method: as §1, §2
The mark [6] stands for this setting: cortex, Table 4, read-out: 3H-PZ-Binding KH (a).

Sequence of m3 receptors (P08483 whole entry): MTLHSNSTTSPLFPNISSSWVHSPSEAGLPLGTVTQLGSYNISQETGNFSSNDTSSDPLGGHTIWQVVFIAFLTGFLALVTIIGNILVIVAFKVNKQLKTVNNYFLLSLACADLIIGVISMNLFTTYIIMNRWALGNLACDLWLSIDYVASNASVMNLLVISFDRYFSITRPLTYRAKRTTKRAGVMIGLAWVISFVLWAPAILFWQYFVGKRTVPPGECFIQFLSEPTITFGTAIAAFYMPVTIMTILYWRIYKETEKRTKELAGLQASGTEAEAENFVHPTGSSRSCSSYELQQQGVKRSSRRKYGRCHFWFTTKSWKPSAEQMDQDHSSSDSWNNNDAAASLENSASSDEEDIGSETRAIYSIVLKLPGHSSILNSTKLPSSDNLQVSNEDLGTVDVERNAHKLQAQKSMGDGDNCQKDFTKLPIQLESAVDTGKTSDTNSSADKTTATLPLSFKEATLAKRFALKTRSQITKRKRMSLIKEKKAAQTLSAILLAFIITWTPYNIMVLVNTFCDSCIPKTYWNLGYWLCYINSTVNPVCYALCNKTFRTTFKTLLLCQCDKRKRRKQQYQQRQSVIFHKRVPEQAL

Consider `CC1=NCC2(CN3CCC2CC3)O1` (racemic) [AF125, 2-Methyl-spiro(1,3 oxazoline-5,3')quinuclidine], for which the Ki in data set [1] (setting [6]) is 4000 nM. Moreover, the Side-effects result in data set [2] is “Only two saline-injected rats treated with AF125 had diarrhoea”. Besides, the “correct choices out of the first eight entries” value in data set [2] (AF64A-injected rats) is on record as 6.53±0.36.
Take `CC1=NCC2(CCN(C)CC2)O1` [AF150, 2-Methyl-spiro(1,3-oxazoline-5,4')-1'-methylpiperidine]: the “RATIOS c:a” value in data set [1] (KH cerebellum (3H-QNB) : KH cortex (3H-PZ)) was found to be 225. The “RATIOS b:a” value in data set [1] (KL : KH cortex (3H-PZ)) is 900. Also, in data set [1] (KL cerebellum (3H-QNB) : KL cortex (3H-PZ)), the “RATIOS d:b” value is listed as 4.4. Moreover, in data set [1] (cortex, Table 4), the “% H” value was found to be 24% and the “%L” value worked out at 76%. For the same compound, in data set [1] (setting [6]), the Ki was determined as 20 nM. Also, the Ki in data set [1] (cortex, Table 4, read-out: 3H-PZ-Binding KL (b)) came to 18000 nM. Besides, in data set [3], a half-maximal response (EC50) required 1000 nM and the “AC (adenylate cyclase activity)” value was “+++”. For the same compound, in data set [4] (applied topically by microdrops), the “slow AHP (Ca++-dependent K+ conductance)” value is on record as “blocks the slow AHP”. Also, in data set [4] (applied topically by microdrops (AF150: 100 µM)), the depolarization entry was “potent depolarizing response”. In addition, in data set [4] (microdrops (100 µM)), the “input resistance at rest” value was “real increase in input resistance at rest” and the “postsynaptic potentials (PSPs)” value is reported as “small reduction in postsynaptic potentials”. Also, in data set [5], the “effective concentration which induces the effect” value is reported as 10^b µM and the “PI (phosphoinositides hydrolysis)” value is “+”.
Turning to `CC1=NC2(CCN(C)CC2)CO1` [AF151, 1-methylpiperidine-4-spiro-4'-(2'-methyl-1',3'-oxazoline)], in data set [3], the concentration for a half-maximal effect (EC50) was determined as 1000 nM and the “AC (adenylate cyclase activity)” value was “+++”. In data set [5], the “effective concentration which induces the effect” value is 10^b µM and the “PI (phosphoinositides hydrolysis)” value was “+”.

As usually defined, the EC50 is the concentration that produces a half-maximal response.
